Where two headings read alike, the source gives them in different places. Blank lines part the entries; values can stand above or below the molecule they belong to.
Assays:
P493-6 (myc "on") cells = experiment: Cell Proliferation Assay (72 hrs, Cell Titer Glo or Viacount FACS); format: cell-based
Protocol: P493-6 (myc “on”) cells were maintained in growth media (RPMI-1640, 10% FBS, 2 mM glutamine, 100 units/ml Penicillin and 100 μg/ml streptomycin) at 37° C. with 5% CO2. For compound assay, P493-6 cells were plated in 96-well V-bottom plates on the day of compound addition in 50 μl of growth media at a cell density of 200,000 cells/ml (10,000 cells/well). Compounds were serially diluted in 100% DMSO at 200-times the final concentration. Compounds were diluted 100-fold into growth media and then 50 μl of this mixture was added to cell plates making the final concentration of DMSO 0.5%. Cells were incubated with compound for 72 hrs at 37° C. with 5% CO2 and analyzed for antiproliferative effects either by Cell Titer Glo (Promega) or FACS analysis using the Viacount (Millipore) kit on the Guava instrument.

[1] = molecular target: recombinant form of Glutaminase 1 (GAC) (Homo sapiens, UniProt O94925); experiment: Recombinant Enzyme Assay (GAC coupled to GDH, NADH absorbance, no preincubation); format: biochemical; settings: no preincubation; read-out: GAC Delta N2 IC50 no preinc
Summary of the method: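 GAC (4 nM) in Tris-HCl pH 8.0 with 150 mM K2HPO4, EDTA, BSA, DTT, plus 4 units/ml GDH and 4 mM ADP, without preincubation. Absorbance at 340 nm was read kinetically for 15 min at 20° C. Slopes (mAU/min) were compared with DMSO-only and control-compound wells on the same plate.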

[2] = system: HCT116 colon carcinoma xenograft; experiment: Xenograft Efficacy Studies (HCT116 colon carcinoma xenograft); format: in vivo, scid/bg mice; settings: intraperitoneal administration twice daily to mice, FIG. 1
Protocol: Certain compounds were assayed for in vivo efficacy in xenograft models as follows.
Female scid/bg mice, approximately 6 weeks of age, were implanted subcutaneously on the right flank with 5×10^6 HCT116 cells per mouse in a volume of 100 uL of sterile PBS. When tumors reached a volume of 50-100 mm^3, mice were randomized to groups of n=10 to receive either vehicle or test compound delivered twice daily by intraperitoneal injection. Tumors were measured three times per week using Vernier calipers and tumor volume calculated using the formula: Volume=(Length×Width^2/2), where length and width are the longest perpendicular sides of the tumor. Dosing continued twice daily until control tumors reached a size of 2000 mm^3. Statistical comparisons were made using a 2-way ANOVA with Bonferroni post-test.

[3] = Caco-2 Permeability Assay (bidirectional); format: in vitro ADME; settings: human
Excerpt: (§1) Caco-2 cells are commonly used in a confluent monolayer on a cell culture insert filter. When cultured in this format and under specific conditions, the cells become differentiated and polarized such that their phenotype, morphologically and functionally resembles the enterocytes lining the small intestine. The cell monolayer provides a physical and biochemical barrier to the passage of small molecules, and is widely used across the pharmaceutical industry as an in vitro model of the human small intestinal mucosa to predict the absorption of orally administered drugs (Hidalgo et al., Gastroenterology, 1989; Artursson, J. Pharm. Sci., 1990). The correlation between the in vitro apparent permeability (P ? app) across Caco-2 monolayers and the in vivo absorption is well established (Artursson et al., Biochem. Biophys. Res. Comm., 1991).
(§2) The present assay was used to determine the bidirectional permeability of the compounds of the invention through Caco-2 cell monolayers. Caco-2 cells were grown in confluent monolayers where the media of both the apical (A) and basolateral (B) sides were at pH 7.4. Compounds were dosed at 1 μM in the presence of 200 μM Lucifer Yellow, on the apical side (A→B) or the basolateral side (B→A) for assessment, in duplicate.
(§3) The absorption potential of compounds were classified as either Low (P-app <1×10^−6 cm/s) or High (P-app >1×10^−6 cm/s).

Caco-2 cell monolayers = experiment: Caco-2 Permeability Assay (bidirectional); format: in vitro ADME
Excerpt: as §1, §2, §3

[4] = read-out: Cell prolif P493 72h IC50, P493-6 cells, 72 h

Structure (SMILES): Nc1nnc(CCCCc2ccc(NC(=O)Cc3cccc(OC(F)(F)F)c3)nn2)s1 [Compound 657, N-(6-(4-(5-amino-1,3,4-thiadiazol-2-yl)butyl)pyridazin-3-yl)-2-(3-(trifluoromethoxy)phenyl)acetamide]
IC50 (P493-6 (myc "on") cells; P493-6, 72 h, P493-6 cells, 72 h, read-out: Cell prolif P493 72h): 1500 nM

Structure (SMILES): O=C(Cc1cccc(CN2CCNCC2)c1)Nc1nnc(CCCCc2nnc(NC(=O)Cc3cccc(CN4CCNCC4)c3)s2)s1 [Compound 276]
IC50 (P493-6 (myc "on") cells; [4]): 56000 nM

Structure (SMILES): O=C(Nc1nnc(CCCCc2nnc(NC(=O)C3COc4ccccc43)s2)s1)C1COc2ccccc21 (centres unmarked) [Compound 135]
IC50 (P493-6 (myc "on") cells; [4]): 490 nM

The next lines start with results.

IC50 [1]: 2000 nM
Structure (SMILES): O=C(CCN1CCOCC1)OCC(C(=O)Nc1nnc(CCCCc2nnc(NC(=O)C(COC(=O)CCN3CCOCC3)c3ccccc3)s2)s1)c1ccccc1 (centres unmarked) [Compound 188, {[5,5′-(butane-1,4-diyl)-bis(1,3,4-thiadiazole-5,2-diyl)]-bis(azanediyl)}-bis(3-oxo-2-phenylpropane-3,1-diyl)-bis(3-morpholinopropanoate)]
tumor size [2]: reduced tumor size

IC50 [1]: > 20000 nM
Structure (SMILES): CC(C)(C)OC(=O)Nc1ccc(CC(=O)Cc2nnc(CCCCc3nnc(NC(=O)Cc4ccc(NC(=O)OC(C)(C)C)cc4)s3)s2)cc1 [Compound 192]
IC50 (P493-6 (myc "on") cells; P493-6, 72 h, read-out: Cell prolif P493 72h IC50, P493-6 cells, 72 h): 30 nM

recovery at 120 min, 1 μM ([3]; Caco-2, pH 7.4, Direction A→B, 1 μM, 120 minutes, pH 7.4): 70%
recovery at 120 min, 1 μM ([3]; Caco-2, pH 7.4, Direction B→A, 1 μM, 120 minutes, pH 7.4): 72%
Papp A→B at 120 min, 1 μM ([3]; Caco-2, Direction A→B, 1 μM, 120 minutes, pH 7.4, unit not given (thresholds in 10^−6 cm/s)): 9.64 ×10⁻⁶ cm/s
Papp B→A at 120 min, 1 μM ([3]; Caco-2, Direction B→A, 1 μM, 120 minutes, pH 7.4, unit not given (thresholds in 10^−6 cm/s)): 59.6 ×10⁻⁶ cm/s
permeability class (Low/High absorption potential) at 120 min, 1 µM ([3]; Caco-2, absorption potential, read-out: Permeability Classification): > 1 ×10⁻⁶ cm/s
Structure (SMILES): O=C(Cc1cccc(OC(F)(F)F)c1)Nc1ccc(CCCCc2nnc(NC(=O)Cc3ccccn3)s2)nn1 [Compound 670]
IC50 (P493-6 (myc "on") cells; P493-6 cells, 72 h, read-out: Cell prolif P493 72h): 30 nM
Significant Efflux (Caco-2 cell monolayers): Yes (efflux ratios being significant when greater than or equal to 3 when the Papp (B→A) was greater than or equal to 1×10^−6 cm/s)
